Among the data in publication PMC3155411 (2011) are Kd values, retold here.

Each structure is given as a SMILES string.

In test [1] the target is carbonic anhydrase (Zn-CA) (Bos taurus, UniProt P00921). The experiment in a line: fluorescence titration. In kind it is binding.
Test [2] concerns the target T1, yeast alcohol dehydrogenase (Saccharomyces cerevisiae, UniProt P00330).
T1 sequence (P00330 2-348): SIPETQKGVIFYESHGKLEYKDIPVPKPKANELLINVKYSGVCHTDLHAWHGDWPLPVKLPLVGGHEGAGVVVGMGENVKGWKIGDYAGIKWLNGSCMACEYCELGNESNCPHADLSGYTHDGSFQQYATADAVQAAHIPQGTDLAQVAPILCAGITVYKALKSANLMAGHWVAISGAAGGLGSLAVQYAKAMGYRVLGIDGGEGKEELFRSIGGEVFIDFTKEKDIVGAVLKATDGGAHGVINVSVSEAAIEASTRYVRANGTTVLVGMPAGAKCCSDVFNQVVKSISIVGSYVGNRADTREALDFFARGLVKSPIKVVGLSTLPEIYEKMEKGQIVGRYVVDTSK
The experiment in a line: fluorescence titration. In kind it is binding.

Sequence of carbonic anhydrase (Zn-CA) (P00921 2-260): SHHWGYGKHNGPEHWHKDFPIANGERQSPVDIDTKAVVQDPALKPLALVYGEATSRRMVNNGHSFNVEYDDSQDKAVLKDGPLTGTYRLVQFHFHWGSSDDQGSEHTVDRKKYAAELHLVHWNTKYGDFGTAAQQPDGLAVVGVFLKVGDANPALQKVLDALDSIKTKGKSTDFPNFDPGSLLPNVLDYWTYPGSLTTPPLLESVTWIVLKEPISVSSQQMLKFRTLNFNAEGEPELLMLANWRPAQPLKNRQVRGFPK

Consider `COc1cc(NS(=O)(=O)c2ccc(C)cc2)c2ncccc2c1` [TSQ, 6-methoxy-8-p-toluenesulfonamido-quinoline], for which the Kd in test [1] came out at 0.155 µM; in test [2], 48.6 µM.
